Test results published in PubChem BioAssay (NCI).
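Results reflect a 48-hour exposure of cells in 96-well plates to compound at five concentrations. TGI: concentration producing complete growth inhibition.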

Experiments:
Assay in all cases: NCI-60 cell line screen, 48 h
HCT-15 colon = test system: HCT-15 colon
MALME-3M melanoma = test system: MALME-3M melanoma
NCI/ADR-RES ovarian = test system: NCI/ADR-RES ovarian
SNB-75 CNS = test system: SNB-75 CNS
SK-MEL-28 melanoma = test system: SK-MEL-28 melanoma
SNB-19 CNS = test system: SNB-19 CNS
NCI-H226 lung = test system: NCI-H226 lung
DU-145 prostate = test system: DU-145 prostate
A498 renal = test system: A498 renal
SR leukemia = test system: SR leukemia
NCI-H460 lung = test system: NCI-H460 lung
ACHN renal = test system: ACHN renal
SK-OV-3 ovarian = test system: SK-OV-3 ovarian
T-47D breast = test system: T-47D breast
PC-3 prostate = test system: PC-3 prostate
OVCAR-3 ovarian = test system: OVCAR-3 ovarian
OVCAR-8 ovarian = test system: OVCAR-8 ovarian
LOX IMVI melanoma = test system: LOX IMVI melanoma
OVCAR-5 ovarian = test system: OVCAR-5 ovarian
UO-31 renal = test system: UO-31 renal
UACC-62 melanoma = test system: UACC-62 melanoma
COLO 205 colon = test system: COLO 205 colon
UACC-257 melanoma = test system: UACC-257 melanoma
MOLT-4 leukemia = test system: MOLT-4 leukemia
IGROV1 ovarian = test system: IGROV1 ovarian
HS 578T breast = test system: HS 578T breast
MDA-MB-435 = test system: MDA-MB-435
NCI-H522 lung = test system: NCI-H522 lung
SW-620 colon = test system: SW-620 colon
M14 melanoma = test system: M14 melanoma
TK-10 renal = test system: TK-10 renal
K-562 leukemia = test system: K-562 leukemia
A549 NSCLC = test system: A549 NSCLC
HT29 colon = test system: HT29 colon
HCC-2998 colon = test system: HCC-2998 colon
SK-MEL-5 melanoma = test system: SK-MEL-5 melanoma
KM12 colon = test system: KM12 colon
HL-60(TB) leukemia = test system: HL-60(TB) leukemia
BT-549 breast = test system: BT-549 breast
NCI-H23 lung = test system: NCI-H23 lung
HCT-116 colon = test system: HCT-116 colon
SF-539 CNS = test system: SF-539 CNS
MCF7 breast = test system: MCF7 breast
RPMI-8226 leukemia = test system: RPMI-8226 leukemia
SN12C renal = test system: SN12C renal
CAKI-1 renal = test system: CAKI-1 renal
SK-MEL-2 melanoma = test system: SK-MEL-2 melanoma
SF-295 CNS = test system: SF-295 CNS
CCRF-CEM leukemia = test system: CCRF-CEM leukemia
RXF 393 renal = test system: RXF 393 renal
U251 CNS = test system: U251 CNS
MDA-N = test system: MDA-N
SF-268 CNS = test system: SF-268 CNS
786-0 renal = test system: 786-0 renal
MDA-MB-231 breast = test system: MDA-MB-231 breast
HOP-62 NSCLC = test system: HOP-62 NSCLC
OVCAR-4 ovarian = test system: OVCAR-4 ovarian

`c1ccc([P+](c2ccccc2)(c2ccccc2)c2ccc([P+](c3ccccc3)(c3ccccc3)c3ccccc3)c3ccccc23)cc1` showed a TGI (HCT-15 colon) of over 100 µM, a TGI (MALME-3M melanoma) of over 100 µM and a TGI (NCI/ADR-RES ovarian) of over 100 µM. It also gave a TGI (SNB-75 CNS) of over 100 µM, a TGI (SK-MEL-28 melanoma) of over 100 µM and a TGI (SNB-19 CNS) of over 100 µM. For the same compound, the TGI (NCI-H226 lung) was over 100 µM, the TGI (DU-145 prostate) was over 100 µM and the TGI (A498 renal) was over 100 µM. For the same compound, the TGI (SR leukemia) was over 100 µM, the TGI (NCI-H460 lung) was over 100 µM and the TGI (ACHN renal) was over 100 µM. For the same compound, the TGI (SK-OV-3 ovarian) was over 100 µM, the TGI (T-47D breast) was over 100 µM and the TGI (PC-3 prostate) was over 100 µM. For the same compound, the TGI (OVCAR-3 ovarian) was over 100 µM, the TGI (OVCAR-8 ovarian) was over 100 µM and the TGI (LOX IMVI melanoma) was over 100 µM. For the same compound, the TGI (OVCAR-5 ovarian) was over 100 µM, the TGI (UO-31 renal) was over 100 µM and the TGI (UACC-62 melanoma) was over 100 µM. For the same compound, the TGI (COLO 205 colon) was over 100 µM, the TGI (UACC-257 melanoma) was over 100 µM and the TGI (MOLT-4 leukemia) was over 100 µM. For the same compound, the TGI (IGROV1 ovarian) was over 100 µM, the TGI (HS 578T breast) was over 100 µM and the TGI (MDA-MB-435) was over 100 µM. It also gave a TGI (NCI-H522 lung) of over 100 µM, a TGI (SW-620 colon) of over 100 µM and a TGI (M14 melanoma) of over 100 µM. The TGI (TK-10 renal) was over 100 µM, the TGI (K-562 leukemia) was over 100 µM and the TGI (A549 NSCLC) was over 100 µM. For the same compound, the TGI (HT29 colon) was over 100 µM, the TGI (HCC-2998 colon) was over 100 µM and the TGI (SK-MEL-5 melanoma) was over 100 µM. The TGI (KM12 colon) was over 100 µM, the TGI (HL-60(TB) leukemia) was over 100 µM and the TGI (BT-549 breast) was over 100 µM. It also gave a TGI (NCI-H23 lung) of over 100 µM, a TGI (HCT-116 colon) of over 100 µM and a TGI (SF-539 CNS) of over 100 µM. The TGI (MCF7 breast) was over 100 µM, the TGI (RPMI-8226 leukemia) was over 100 µM and the TGI (SN12C renal) was over 100 µM. For the same compound, the TGI (CAKI-1 renal) was over 100 µM, the TGI (SK-MEL-2 melanoma) was over 100 µM and the TGI (SF-295 CNS) was over 100 µM. For the same compound, the TGI (CCRF-CEM leukemia) was over 100 µM, the TGI (RXF 393 renal) was over 100 µM and the TGI (U251 CNS) was over 100 µM. For the same compound, the TGI (MDA-N) was over 100 µM, the TGI (SF-268 CNS) was over 100 µM and the TGI (786-0 renal) was over 100 µM. It also gave a TGI (MDA-MB-231 breast) of over 100 µM and a TGI (HOP-62 NSCLC) of over 100 µM.
`S=c1[nH]nc(C23CC4CC(CC(C4)C2)C3)n1-c1ccc(Cl)cc1` showed a TGI (HCT-15 colon) of 23.3 µM, a TGI (MALME-3M melanoma) of 63.3 µM and a TGI (NCI/ADR-RES ovarian) of 59.8 µM. The TGI (SNB-75 CNS) was 72.1 µM, the TGI (SK-MEL-28 melanoma) was 33.4 µM and the TGI (SNB-19 CNS) was over 100 µM. The TGI (NCI-H226 lung) was 55.8 µM, the TGI (DU-145 prostate) was 95.9 µM and the TGI (A498 renal) was 42.6 µM. The TGI (SR leukemia) was 16.4 µM, the TGI (NCI-H460 lung) was 56 µM and the TGI (ACHN renal) was 73.5 µM. For the same compound, the TGI (SK-OV-3 ovarian) was 73.9 µM, the TGI (T-47D breast) was 52 µM and the TGI (PC-3 prostate) was 93.7 µM. It also gave a TGI (OVCAR-3 ovarian) of 30.4 µM, a TGI (OVCAR-8 ovarian) of over 100 µM and a TGI (LOX IMVI melanoma) of 17 µM. It also gave a TGI (OVCAR-5 ovarian) of over 100 µM, a TGI (UO-31 renal) of 44.7 µM and a TGI (UACC-62 melanoma) of 25.3 µM. The TGI (COLO 205 colon) was 46 µM, the TGI (UACC-257 melanoma) was 71.4 µM and the TGI (MOLT-4 leukemia) was 49.4 µM. It also gave a TGI (IGROV1 ovarian) of 42.9 µM, a TGI (HS 578T breast) of 52.8 µM and a TGI (MDA-MB-435) of 55.9 µM. For the same compound, the TGI (NCI-H522 lung) was 57.9 µM, the TGI (SW-620 colon) was over 100 µM and the TGI (M14 melanoma) was 41.4 µM. For the same compound, the TGI (TK-10 renal) was 72.4 µM, the TGI (K-562 leukemia) was over 100 µM and the TGI (A549 NSCLC) was 72.2 µM. It also gave a TGI (HT29 colon) of 36.8 µM, a TGI (HCC-2998 colon) of 32.9 µM and a TGI (SK-MEL-5 melanoma) of 14.4 µM. For the same compound, the TGI (KM12 colon) was 52.9 µM, the TGI (HL-60(TB) leukemia) was 8.41 µM and the TGI (OVCAR-4 ovarian) was over 100 µM. It also gave a TGI (BT-549 breast) of 29.9 µM, a TGI (NCI-H23 lung) of over 100 µM and a TGI (HCT-116 colon) of 23.8 µM. It also gave a TGI (SF-539 CNS) of 38 µM, a TGI (MCF7 breast) of 45.7 µM and a TGI (RPMI-8226 leukemia) of 66.9 µM. The TGI (SN12C renal) was 39.9 µM, the TGI (CAKI-1 renal) was 11.5 µM and the TGI (SK-MEL-2 melanoma) was 27.9 µM. The TGI (SF-295 CNS) was 58.6 µM, the TGI (CCRF-CEM leukemia) was 19.8 µM and the TGI (RXF 393 renal) was 38.1 µM. The TGI (U251 CNS) was 31.7 µM, the TGI (MDA-N) was 41.1 µM and the TGI (SF-268 CNS) was 50.1 µM. For the same compound, the TGI (786-0 renal) was over 100 µM, the TGI (MDA-MB-231 breast) was 56.4 µM and the TGI (HOP-62 NSCLC) was 32.7 µM.
